# Results from US8163921B2, “Hepatitis C virus inhibitors” (Bristol-Myers Squibb Company, priority 2008, dated 2012).
# Like-named read-outs stand apart in the source and are kept apart here.
# What was measured:
# [1] = target: T1, HCV NS3/4A protease complex, BMS strain (UniProt P27958, C1454S/C1711G, species not given); experiment: FRET peptide assay to monitor HCV NS3/4A proteolytic activity (BMS strain); type: biochemical, HCV genotype 1a; conditions: read-out: IC50 Range, HCV NS3/4A enzyme assay
# T1 construct: other: HCV NS3/4A enzyme assay; class symbols; numeric values; fused on or other part: three-lysine solubilising tail at the C-terminus of NS4A; purified on Ni-NTA from the pET21b vector (His tag implied)
# Excerpt: HCV NS3 protease complexes, derived from the BMS strain, H77 strain or J4L6S strain, were generated, as described below. These purified recombinant proteins were generated for use in a homogeneous assay (see below) to provide an indication of how effective compounds of the present disclosure would be in inhibiting HCV NS3 proteolytic activity.
# Serum from an HCV-infected patient was obtained from Dr. T. Wright, San Francisco Hospital. An engineered full-length cDNA (compliment deoxyribonucleic acid) template of the HCV genome (BMS strain) was constructed from DNA fragments obtained by reverse transcription-PCR (RT-PCR) of serum RNA (ribonucleic acid) and using primers selected on the basis of homology between other genotype 1a strains. From the determination of the entire genome sequence, a genotype 1a was assigned to the HCV isolate according to the classification of Simmonds et al. (See P Simmonds, K A Rose, S Graham, S W Chan, F McOmish, B C Dow, E A Follett, P L Yap and H Marsden, J. Clin. Microbiol., 31(6), 1493-1503 (1993)). […] The infectious clones, H77 (1a genotype) and J4L6S (1b genotype) were obtained from R. Purcell (NIH) and the sequences are published in Genbank (AAB67036, see Yanagi, M., Purcell, R. H., Emerson, S. U. and Buldi, J. Proc. Natl. Acad. Sci. U.S.A. 94(16),8738-8743 (1997); AF054247, see Yanagi, M., St Claire, M., Shapiro, M., Emerson, S. U., Purcell, R. H. and Bukh, J, Virology 244 (1), 161-172. (1998)).
# NS3/4A protease complex-containing fractions were pooled and loaded on a desalting column Superdex-S200 pre-equilibrated with buffer D (25 mM HEPES, pH 7.5, 20% glycerol, 300 mM NaCl, 0.2% TritonX-100, 10 mM βMB). Sample was loaded at a flow rate of 1 mL/min. NS3/4A protease complex-containing fractions were pooled and concentrated to approximately 0.5 mg/ml. The purity of the NS3/4A protease complexes, derived from the BMS, H77 and J4L6S strains, were judged to be greater than 90% by SDS-PAGE and mass spectrometry analyses. The enzyme was stored at −80° C., thawed on ice and diluted prior to use in assay buffer.
# The purpose of this in vitro assay was to measure the inhibition of HCV NS3 protease complexes, derived from the BMS strain, H77 strain or J4L6S strain, as described above, by compounds of the present disclosure. This assay provides an indication of how effective compounds of the present disclosure would be in inhibiting HCV NS3 proteolytic activity.
# In order to monitor HCV NS3/4A protease activity, an NS3/4A peptide substrate was used. The substrate was RET S1 (Resonance Energy Transfer Depsipeptide Substrate; AnaSpec, Inc. cat #22991)(FRET peptide), described by Taliani et al. in Anal. Biochem. 240(2):60-67 (1996). The sequence of this peptide is loosely based on the NS4A/NS4B natural cleavage site for the HCV NS3 protease except there is an ester linkage rather than an amide bond at the cleavage site. The peptide also contains a fluorescence donor, EDANS, near one end of the peptide and an acceptor, DABCYL, near the other end. The fluorescence of the peptide is quenched by […] resonance energy transfer (RET) between the donor and the acceptor, but as the NS3 protease cleaves the peptide the products are released from RET quenching and the fluorescence of the donor becomes apparent.
# The peptide substrate was incubated with one of the three recombinant NS3/4A protease complexes, in the absence or presence of a compound of the present disclosure. The inhibitory effects of a compound were determined by monitoring the formation of fluorescent reaction product in real time using a Cytofluor Series 4000.
# Assay buffer: 50 mM HEPES, pH 7.5; 0.15 M NaCl; 0.1% Triton; 15% Glycerol; 10 mM βME. Substrate: 2 μM final concentration (from a 2 mM stock solution in DMSO stored at −20° C.). HCV NS3/4A protease type 1a (1b), 2-3 nM final concentration (from a 5 μM stock solution in 25 mM HEPES, pH 7.5, 20% glycerol, 300 mM NaCl, 0.2% Triton-X100, 10 mM βME). […]
# [2] = test system: HCV replicon in HUH-7 cells; experiment: HCV replicon FRET assay; type: cell-based, HCV strain 1b; conditions: Hepatitis C virus
# Excerpt: An HCV replicon whole cell system was established as described by Lohmann V, Korner F, Koch J, Herian U, Theilmann L, Bartenschlager R., Science 285(5424):110-3 (1999). This system enabled us to evaluate the effects of our HCV Protease compounds on HCV RNA replication. Briefly, using the HCV strain 1b sequence described in the Lohmann paper (Assession number:AJ238799), an HCV cDNA was synthesized by Operon Technologies, Inc. (Alameda, Calif.), and the full-length replicon was then assembled in plasmid pGem9zf(+) (Promega, Madison, Wis.) using standard molecular biology techniques. The replicon consists of (i) the HCV 5′ UTR fused to the first 12 amino acids of the capsid protein, (ii) the neomycin phosphotransferase gene (neo), (iii) the IRES from encephalomyocarditis virus (EMCV), and (iv) HCV NS3 to NS5B genes and the HCV 3′ UTR. Plasmid DNAs were linearized with ScaI and RNA transcripts were synthesized in vitro using the T7 MegaScript transcription kit (Ambion, Austin, Tex.) according to manufacturer's directions. In vitro transcripts of the eDNA were transfected into the human hepatoma cell line, HUH-7. […] Resulting cell lines were characterized for positive and negative strand RNA production and protein production over time.
# The HCV replicon FRET assay was developed to monitor the inhibitory effects of compounds described in the disclosure on HCV viral replication. HUH-7 cells, constitutively expressing the HCV replicon, were grown in Dulbecco's Modified Eagle Media (DMEM) (Gibco-BRL) containing 10% Fetal calf serum (FCS) (Sigma) and 1 mg/ml G418 (Gibco-BRL). Cells were seeded the night before (1.5×10^4 cells/well) in 96-well tissue-culture sterile plates. Compound and no compound controls were prepared in DMEM containing 4% FCS, 1:100 Penicillin/Streptomysin (Gibco-BRL), 1:100 L-glutamine and 5% DMSO in the dilution plate (0.5% DMSO final concentration in the assay). Compound/DMSO mixes were added to the cells and incubated for 4 days at 37° C. After 4 days, cells were first assessed for cytotoxicity using alamar Blue (Trek Diagnotstic Systems) for a CC50 reading. The toxicity of compound (CC50) was determined by adding 1/10th volume of alamar Blue to the media incubating the cells. After 4 h, the fluorescence signal from each well was read, with an excitation wavelength at 530 nm and an emission wavelength of 580 nm, using the Cytofluor Series 4000 (Perspective Biosystems). Plates were then rinsed thoroughly with Phosphate-Buffered Saline (PBS) (3 times 150 μl).
Structure (SMILES),IC50 ([1]; numeric values) [nM],"EC50 ([2]; Huh-7, HCV replicon cell assay, numeric values, read-out: EC50 Range) [nM]",IC50 ([1]; class symbols) [nM],"EC50 ([2]; Huh-7, read-out: EC50 Range) [nM]"
"C=C[C@@H]1C[C@]1(NC(=O)[C@@H]1C[C@@H](Oc2ncc(OC)c3ccc(Cl)cc23)CN1C(=O)C(Nc1ccc(-c2ccccc2)c(OC)c1)C(C)(C)C)C(=O)NS(=O)(=O)C1CC1 (single isomer, unassigned) [Example 18A]",54,78.1,–,–
C=C[C@@H]1C[C@]1(NC(=O)[C@@H]1C[C@@H](Oc2cc(-c3ccccc3)nc3cc(OC)ccc23)CN1C(=O)[C@@H](Nc1nc(-c2ccccc2)cs1)C(C)(C)C)C(=O)NS(=O)(=O)C1CC1 [Example 1],–,–,1 to 20,1 to 50
C=C[C@@H]1C[C@]1(NC(=O)[C@@H]1C[C@@H](Oc2cc(-c3ccccc3)nc3cc(OC)ccc23)CN1C(=O)[C@@H](Nc1nc(-c2ccccc2OC)cs1)C(C)(C)C)C(=O)NS(=O)(=O)C1CC1 [Example 2],–,–,1 to 20,1 to 50
C=C[C@@H]1C[C@]1(NC(=O)[C@@H]1C[C@@H](Oc2cc(-c3ccccc3)nc3cc(OC)ccc23)CN1C(=O)[C@@H](Nc1nc(-c2cccc(OC)c2)cs1)C(C)(C)C)C(=O)NS(=O)(=O)C1CC1 [Example 3],–,–,1 to 20,1 to 50
C=C[C@@H]1C[C@]1(NC(=O)[C@@H]1C[C@@H](Oc2cc(-c3ccccc3)nc3cc(OC)ccc23)CN1C(=O)[C@@H](Nc1nc(-c2ccc(OC)cc2)cs1)C(C)(C)C)C(=O)NS(=O)(=O)C1CC1 [Example 4],–,–,1 to 20,1 to 50
C=C[C@@H]1C[C@]1(NC(=O)[C@@H]1C[C@@H](Oc2cc(-c3ccccc3)nc3cc(OC)ccc23)CN1C(=O)[C@@H](Nc1nc(-c2ccc(F)cc2)cs1)C(C)(C)C)C(=O)NS(=O)(=O)C1CC1 [Example 5],–,–,1 to 20,1 to 50
"C=C[C@@H]1C[C@]1(NC(=O)[C@@H]1C[C@@H](Oc2ncc(OC)c3ccc(Cl)cc23)CN1C(=O)[C@@H](Nc1nc(-c2ccc(F)c(F)c2)cs1)C(C)(C)C)C(=O)NS(=O)(=O)C1CC1 [Example 6, (2S,4R)-4-(7-chloro-4-methoxyisoquinolin-1-yloxy)-N-((1R,2S)-1-(cyclopropylsulfonylcarbamoyl)-2-vinylcyclopropyl)-1-((S)-2-(4-(3,4-difluorophenyl)thiazol-2-ylamino)-3,3-dimethylbutanoyl)pyrrolidine-2-carboxamide]",–,–,1 to 20,1 to 50
C=C[C@@H]1C[C@]1(NC(=O)[C@@H]1C[C@@H](Oc2ncc(OC)c3ccc(Cl)cc23)CN1C(=O)[C@@H](Nc1nc(-c2ccc(OC)cc2)cs1)C(C)(C)C)C(=O)NS(=O)(=O)C1CC1 [Example 7],–,–,1 to 20,1 to 50
C=C[C@@H]1C[C@]1(NC(=O)[C@@H]1C[C@@H](Oc2ncc(OC)c3ccc(Cl)cc23)CN1C(=O)[C@@H](Nc1nc(-c2ccc(OC(F)F)cc2)cs1)C(C)(C)C)C(=O)NS(=O)(=O)C1CC1 [Example 8],–,–,1 to 20,1 to 50
"C=C[C@@H]1C[C@]1(NC(=O)[C@@H]1C[C@@H](Oc2ncc(OC)c3ccc(Cl)cc23)CN1C(=O)[C@@H](Nc1nc(-c2ccccc2)c(C)s1)C(C)(C)C)C(=O)NS(=O)(=O)C1CC1 [Example 9, (2S,4R)-4-(7-chloro-4-methoxyisoquinolin-1-yloxy)-N-((1R,2S)-1-(cyclopropylsulfonylcarbamoyl)-2-vinylcyclopropyl)-1-((S)-3,3-dimethyl-2-(5-methyl-4-phenylthiazol-2-ylamino)butanoyl)pyrrolidine-2-carboxamide]",–,–,1 to 20,1 to 50
C=C[C@@H]1C[C@]1(NC(=O)[C@@H]1C[C@@H](Oc2ncc(OC)c3ccc(Cl)cc23)CN1C(=O)[C@@H](Nc1nc(-c2ccc(S(C)(=O)=O)cc2)cs1)C(C)(C)C)C(=O)NS(=O)(=O)C1CC1 [Example 89],–,–,1 to 20,–
C=C[C@@H]1C[C@]1(NC(=O)[C@@H]1C[C@@H](Oc2ncc(OC)c3ccc(Cl)cc23)CN1C(=O)[C@@H](Nc1nc(-c2sccc2Cl)cs1)C(C)(C)C)C(=O)NS(=O)(=O)C1CC1 [Example 90],–,–,1 to 20,–
C=C[C@@H]1C[C@]1(NC(=O)[C@@H]1C[C@@H](Oc2ncc(OC)c3ccc(Cl)cc23)CN1C(=O)[C@@H](Nc1nc(-c2ccc(Oc3ccccc3)cc2)cs1)C(C)(C)C)C(=O)NS(=O)(=O)C1CC1 [Example 91],–,–,1 to 20,–
C=C[C@@H]1C[C@]1(NC(=O)[C@@H]1C[C@@H](Oc2ncc(OC)c3ccc(Cl)cc23)CN1C(=O)[C@@H](Nc1nc(-c2cccc(C(F)(F)F)c2)cs1)C(C)(C)C)C(=O)NS(=O)(=O)C1CC1 [Example 94],–,–,1 to 20,–
C=C[C@@H]1C[C@]1(NC(=O)[C@@H]1C[C@@H](Oc2ncc(OC)c3ccc(Cl)cc23)CN1C(=O)[C@@H](Nc1nc(-c2ccccc2C(F)(F)F)cs1)C(C)(C)C)C(=O)NS(=O)(=O)C1CC1 [Example 95],17,–,–,–
C=C[C@@H]1C[C@]1(NC(=O)[C@@H]1C[C@@H](Oc2ncc(OC)c3ccc(Cl)cc23)CN1C(=O)[C@@H](Nc1nc(-c2nc3ccccc3s2)cs1)C(C)(C)C)C(=O)NS(=O)(=O)C1CC1 [Example 96],–,–,1 to 20,–
